Measured values as given in patent US20090030024A1, “THIAZOLES AS FUNGICIDES” (priority 2005, published 2009).

experiment: logP determination by retention times (calibration with alkan-2-ones); conditions: not given

Compound	chromatographic logP
Cc1nc(C)c(-c2ccnc(Nc3cccc(O)c3)n2)s1 [Example 141, 3-{[4-(2,4-dimethyl-1,3-thiazol-5-yl)pyrimidin-2-yl]amino}phenol]	1.84
Cc1nc(C(C)C)sc1-c1ccnc(Nc2ccc3c(c2)OCCO3)n1 [Example 389, N-(2,3-dihydro-1,4-benzodioxin-6-yl)-4-(2-isopropyl-4-methyl-1,3-thiazol-5-yl)pyrimidine-2-amine]	3.16
COc1cccc(Nc2nccc(-c3sc(C4CC4)nc3C)n2)c1 [Example 224, 4-(2-cyclopropyl-4-methyl-1,3-thiazol-5-yl)-N-(3-methoxyphenyl)pyrimidine-2-amine]	3.28
Cc1nc(N)sc1-c1ccnc(Nc2cccc(Cl)c2)n1 [Example 204, 4-(2-amino-4-methyl-1,3-thiazol-5-yl)-N-(3-chlorophenyl)pyrimidine-2-amine]	1.78
Cc1nc(C)c(-c2ccnc(Nc3cccc(C(F)(F)F)c3)n2)s1 [Example 188, 4-(2,4-dimethyl-1,3-thiazol-5-yl)-N-[3-(trifluoromethyl)phenyl]pyrimidine-2-amine]	3.3
COCc1nc(C)c(-c2ccnc(Nc3cccc(O)c3)n2)s1 [Example 101, 3-({4-[2-(methoxymethyl)-4-methyl-1,3-thiazol-5-yl]pyrimidin-2-yl}amino)phenol]	1.97
CCc1nc(C)c(-c2ccnc(Nc3cccc(OC)c3)n2)s1 [Example 236, 4-(2-ethyl-4-methyl-1,3-thiazol-5-yl)-N-(3-methoxyphenyl)pyrimidine-2-amine]	3

same assay, conditions: * HPLC reversed-phase C18, 40° C., mobile phase 0.1% aqueous formic acid and acetonitrile, linear gradient 10% to 95% acetonitrile

Compound	logP
CC(=O)c1ccc(Nc2nccc(-c3sc(N(C)C)nc3C(F)(F)F)n2)cc1 [Example 769, 1-[4-({4-[2-(dimethylamine)-4-(trifluoromethyl)-1,3-thiazol-5-yl]pyrimidin-2-yl}amino)phenyl]ethanone]	3.44*
CC(=O)Nc1cccc(Nc2nccc(-c3sc(N(C)C)nc3C)n2)c1 [Example 762, N-[3-({4-[2-(dimethylamine)-4-methyl-1,3-thiazol-5-yl]pyrimidin-2-yl}amino)phenyl]acetamide]	1.42*

same assay, conditions: logP, * HPLC reversed-phase C18, 40° C., mobile phase 0.1% aqueous formic acid and acetonitrile, linear gradient 10% to 95% acetonitrile

Compound	chromatographic logP
COCC(C)Nc1nc(C)c(-c2ccnc(Nc3ccc(N4CCCC4=O)cc3)n2)s1 (stereo not shown) [Example 728, 1-{4-[(4-{2-[(2-methoxy-1-methylethyl)amino]-4-methyl-1,3-thiazol-5-yl}pyrimidin-2-yl)amino]phenyl}pyrrolidin-2-one]	1.64
COCC(C)Nc1nc(C)c(-c2ccnc(Nc3ccc(C(C)=O)cc3)n2)s1 (stereo not shown) [Example 729, 1-{4-[(4-{2-[(2-methoxy-1-methylethyl)amino]-4-methyl-1,3-thiazol-5-yl}pyrimidin-2-yl)amino]phenyl}ethanone]	1.92
COCCNc1nc(C)c(-c2ccnc(Nc3ccc(OC)nc3)n2)s1 [Example 784, 4-{2-[(2-methoxyethyl)amino]-4-methyl-1,3-thiazol-5-yl}-N-(6-methoxypyridin-3-yl)pyrimidine-2-amine]	1.45

same assay, conditions: logP, values marked *: HPLC on reversed-phase C 18, 40° C., mobile phase 0.1% aqueous formic acid and acetonitrile, linear gradient 10% to 95% acetonitrile

Compound	chromatographic logP
CC(=O)Nc1cccc(Nc2nccc(-c3sc(C(C)C)nc3C)n2)c1 [Example 818, N-(3-{[4-(2-isopropyl-4-methyl-1,3-thiazol-5-yl)pyrimidin-2-yl]amino}phenyl)acetamide]	2.26
COCCCNc1nc(C)c(-c2ccnc(Nc3ccc(OC)nc3)n2)s1 [Example 858, 4-{2-[(3-methoxypropyl)amino]-4-methyl-1,3-thiazol-5-yl}-N-(6-methoxypyridin-3-yl)pyrimidine-2-amine]	1.57
CCc1nc(C)c(-c2nc(Nc3ccc(S(=O)(=O)N(C)C)cc3)ncc2Br)s1 [Example 921, 4-{[5-bromo-4-(2-ethyl-4-methyl-1,3-thiazol-5-yl)pyrimidin-2-yl]amino}-N,N-dimethylbenzenesulphonamide]	3.36

same assay, conditions: values marked *: HPLC on reversed-phase C 18, 40° C., mobile phase 0.1% aqueous formic acid and acetonitrile, linear gradient 10% to 95% acetonitrile

Compound	logP
CC(=O)Nc1ccc(Nc2nccc(-c3sc(N(C)C)nc3C)n2)cc1 [Example 862, N-[4-({4-[2-(dimethylamine)-4-methyl-1,3-thiazol-5-yl]pyrimidin-2-yl}amino)phenyl]acetamide]	1.33*
